In one assay the target is T1, mu opioid receptor (MOR) (Homo sapiens, UniProt P35372).
T1 construct: host or cells: U2OS (Discover X OPRMu1-U2OS, PathHunter)
As to the kind of experiment: OPRMu1 Discover X β-arrestin Assay, antagonist mode (U2OS cells, DAMGO EC80 challenge). The format is cell-based. A digest of the protocol:
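PathHunter U2OS cells with β-gal fragment-complementation readout for β-arrestin recruitment to OPRMu1. Cells were preincubated with compound (10-point, 1:3 series from nominal 10 micromolar) for 30 min at 37 °C, then challenged with 303 nM DAMGO (EC80) for 3 h. Luminescence gave percent inhibition.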

Assay [1] concerns the target T2, kappa opioid receptor (KOR) (Homo sapiens, UniProt P41145).
T2 construct: host or cells: U2OS (Tango OPRK1-bla U2OS)
Briefly: OPRKappa 1 Tango B-Arrestin Assay, antagonist mode (Tango OPRK1-bla U2OS cells, U50488 EC80 challenge). The format is cell-based. Particulars: for Selectivity (MOR/KOR): Kappa selectivity, MOR IC50 / KOR IC50; for IC50: antagonist mode, Tango OPRK1-bla U2OS cells, 6 nM U50488 challenge. A digest of the protocol: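 Tango OPRK1-bla U2OS cells, β-arrestin recruitment read as β-lactamase FRET (CCF4-AM, 460/590 nm emission). Compounds, 10-point 1:3 series from nominal 10 µM in quadruplicate, preincubated 30 min at 37 °C, then challenged with U50488 at 6 nM final (EC80) for 4 h; percent inhibition from median ratio.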

Structures are written as SMILES. Some results are limits rather than exact numbers.

Results on 34 molecules are retold here after US20260115185A1, “QUINOLINE DERIVATIVES WHICH ACT AS KAPPA-OPIOID RECEPTOR ANTAGONISTS” (The Scripps Research Institute, priority 2023, published 2026).

T2 sequence (P41145 whole entry): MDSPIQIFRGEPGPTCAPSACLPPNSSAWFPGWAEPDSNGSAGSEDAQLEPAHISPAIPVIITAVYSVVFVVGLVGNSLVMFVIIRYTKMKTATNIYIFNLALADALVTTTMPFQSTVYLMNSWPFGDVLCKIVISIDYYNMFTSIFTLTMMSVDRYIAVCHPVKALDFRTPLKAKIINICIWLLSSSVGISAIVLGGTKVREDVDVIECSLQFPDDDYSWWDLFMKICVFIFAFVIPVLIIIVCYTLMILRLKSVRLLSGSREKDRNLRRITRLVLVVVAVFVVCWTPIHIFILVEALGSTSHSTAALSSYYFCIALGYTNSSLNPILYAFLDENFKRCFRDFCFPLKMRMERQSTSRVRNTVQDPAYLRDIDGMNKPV
T1 sequence (P35372 whole entry): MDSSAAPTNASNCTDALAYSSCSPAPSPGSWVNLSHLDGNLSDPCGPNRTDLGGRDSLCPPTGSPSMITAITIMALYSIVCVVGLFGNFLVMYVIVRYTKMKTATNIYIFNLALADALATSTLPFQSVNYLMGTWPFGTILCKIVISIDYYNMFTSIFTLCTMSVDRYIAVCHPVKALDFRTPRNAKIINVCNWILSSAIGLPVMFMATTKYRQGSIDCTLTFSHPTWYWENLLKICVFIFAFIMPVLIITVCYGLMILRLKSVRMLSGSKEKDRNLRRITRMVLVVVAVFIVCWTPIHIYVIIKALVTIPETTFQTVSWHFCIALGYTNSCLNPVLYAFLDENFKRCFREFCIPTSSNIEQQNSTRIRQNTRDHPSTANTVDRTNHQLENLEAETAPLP

The molecule `CCc1cc(-c2ccnn2C)c2nc(N3CCC(N[C@@H]4COC[C@@H]4F)CC3)c(-c3ccn(C)n3)c(C)c2c1` [Compound 88] displayed an IC50 against mu opioid receptor (MOR) of 100 to 1000 nM. Further, in assay [1], the “Selectivity (MOR/KOR)” value was “++ (between 10- and 100-fold selectivity)”; the IC50 lay within 1 to 10 nM.
Turning to `CCc1cc(-c2ccnn2C)c2nc(N3CCC(N[C@H]4COC[C@H]4F)CC3)c(-c3ccn(C)n3)c(C)c2c1` [Compound 89], the IC50 is more than 1000 nM at mu opioid receptor (MOR) and 1 to 10 nM in assay [1]. Moreover, the “Selectivity (MOR/KOR)” value in assay [1] is “++ (between 10- and 100-fold selectivity)”.
`CCc1cc(-c2ccnn2C)c2nc(N3CCC(NCC4(F)CCC4)CC3)c(-c3ccn(C)n3)c(C)c2c1` [Compound 90] registered an IC50 on mu opioid receptor (MOR) of 10 to 100 nM. In assay [1], the “Selectivity (MOR/KOR)” value is on record as “+++ (between 100- to 1000-fold selective)” and the IC50 was less than 1 nM.
In turn, `CCc1cc(-c2ccnn2C)c2nc(N3CCC(NCC4CC(F)(F)C4)CC3)c(-c3ccn(C)n3)c(C)c2c1` [Compound 91] displayed an IC50 at mu opioid receptor (MOR) of 10 to 100 nM. Further, in assay [1], the “Selectivity (MOR/KOR)” value was “++ (between 10- and 100-fold selectivity)”; the IC50 lay within 1 to 10 nM.
For `CCc1cc(-c2ccnn2C)c2nc(N3CCC(N4CCOC[C@@H]4C)CC3)c(-c3ccn(C)n3)c(C)c2c1` [Compound 92], the IC50 (at mu opioid receptor (MOR); in assay [1]) was more than 1000 nM each time.
With `CCc1cc(-c2ccnn2C)c2nc(N3CCC(N4CCOC[C@H]4C)CC3)c(-c3ccn(C)n3)c(C)c2c1` [Compound 93], the IC50 (against mu opioid receptor (MOR); in assay [1]) was more than 1000 nM in each case.
On to `CCc1cc(-c2cc(C)nn2C)c2nc(N3CCC(N[C@H]4CCOC4)CC3)c(-c3ccn(C)n3)c(C)c2c1` [Compound 94], for which the IC50 against mu opioid receptor (MOR) is 10 to 100 nM; in assay [1], less than 1 nM. Further, in assay [1], the “Selectivity (MOR/KOR)” value is given as “+++ (between 100- to 1000-fold selective)”.
The like results for `CCc1cc(-c2cc(C)nn2C)c2nc(N3CCC(N[C@@H]4CCOC4)CC3)c(-c3ccn(C)n3)c(C)c2c1` [Compound 95] were, in that order, 10 to 100 nM, less than 1 nM and “+++ (between 100- to 1000-fold selective)”.
The like results for `CCc1cc(-c2cc(C)nn2C)c2nc(N3CC[C@H](NC4CCOCC4)[C@H](F)C3)c(-c3ccn(C)n3)c(C)c2c1` [Compound 96] were, in that order, more than 1000 nM, 1 to 10 nM and “+++ (between 100- to 1000-fold selective)”.
`CCc1cc(-c2ccnn2C)c2nc(N3CCN(C[C@@H]4CCOC4)C[C@H]3C)c(-c3ccn(C)n3)c(C)c2c1` [Compound 97]: the IC50 was more than 1000 nM at mu opioid receptor (MOR) and 1 to 10 nM in assay [1]. Moreover, the “Selectivity (MOR/KOR)” value in assay [1] was “+++ (between 100- to 1000-fold selective)”.
The like results for `CCc1cc(-c2ccnn2C)c2nc(N3CCN(C[C@H]4CCOC4)C[C@H]3C)c(-c3ccn(C)n3)c(C)c2c1` [Compound 98] were, in that order, more than 1000 nM, 10 to 100 nM and “+++ (between 100- to 1000-fold selective)”.
The like results for `CCc1cc(-c2ccn(C)n2)c2nc(N3CCC(N[C@H]4CCOC4)CC3)c(-c3ccn(C)n3)c(C)c2c1` [Compound 99] were, in that order, more than 1000 nM, less than 1 nM and “++++ (more than 1000-fold selectivity over MOR)”.
On the same counts, the results for `CCc1cc(-c2ccn(C)n2)c2nc(N3CCC(N[C@@H]4CCOC4)CC3)c(-c3ccn(C)n3)c(C)c2c1` [Compound 100] are more than 1000 nM, less than 1 nM and “++++ (more than 1000-fold selectivity over MOR)”.
Consider `CCc1cc(-c2ccn(C)n2)c2nc(N3CCN(C(=O)C4CCOCC4)C[C@H]3C)c(-c3ccn(C)n3)c(C)c2c1` [Compound 101], for which the IC50 (against mu opioid receptor (MOR); in assay [1]) was more than 1000 nM each time.
`CCc1cc(-c2ccn(C)n2)c2nc(N3CCC(N[C@H]4CCOC[C@@H]4F)CC3)c(-c3nc(C)no3)c(C)c2c1` [Compound 102]: the IC50 against mu opioid receptor (MOR) is more than 1000 nM. Further, in assay [1], the “Selectivity (MOR/KOR)” value is given as “++++ (more than 1000-fold selectivity over MOR)” and the IC50 is less than 1 nM.
The like results for `CCc1cc(-c2ccn(C)n2)c2nc(N3CCC(NC4CC(F)(F)C4)CC3)c(-c3nc(C)no3)c(C)c2c1` [Compound 103] were, in that order, more than 1000 nM, “+++ (between 100- to 1000-fold selective)” and 1 to 10 nM.
For the molecule `CCc1cc(-c2ccn(C)n2)c2nc(N3CCNC[C@H]3C)c(-c3nc(C)no3)c(C)c2c1` [Compound 104], the IC50 at mu opioid receptor (MOR) was more than 1000 nM; in assay [1] it was 10 to 100 nM. Also, the “Selectivity (MOR/KOR)” value in assay [1] is “+++ (between 100- to 1000-fold selective)”.
`CCc1cc(-c2cc[nH]n2)c2nc(N3CCNC[C@H]3C)c(-c3nc(C)no3)c(C)c2c1` [Compound 105] showed a half-inhibitory concentration (IC50) at mu opioid receptor (MOR) of more than 1000 nM. Moreover, in assay [1], the “Selectivity (MOR/KOR)” value is “++ (between 10- and 100-fold selectivity)”; the IC50 was 10 to 100 nM.
For `CCc1cc(-c2cnn(CCO)c2)c2nc(N3CCNC[C@H]3C)c(-c3nc(C)no3)c(C)c2c1` [Compound 106], the IC50 was more than 1000 nM at mu opioid receptor (MOR) and not below 100 nM in assay [1]. Further, the “Selectivity (MOR/KOR)” value in assay [1] was “++ (between 10- and 100-fold selectivity)”.
Molecule `CCc1cc(F)c2nc(N3CC[C@H](N[C@@H]4CCOC4)[C@H](C)C3)c(-c3ccn(C)n3)c(C)c2c1` [Compound 107] returned a concentration for half-maximal inhibition (IC50) against mu opioid receptor (MOR) of more than 1000 nM. Also, in assay [1], the “Selectivity (MOR/KOR)” value is reported as “+++ (between 100- to 1000-fold selective)” and the IC50 is 10 to 100 nM.
On the same counts, the results for `CCc1cc(F)c2nc(N3CC[C@H](N[C@@H]4CCOC4)[C@@H](C)C3)c(-c3ccn(C)n3)c(C)c2c1` [Compound 108] are 100 to 1000 nM, “+++ (between 100- to 1000-fold selective)” and 1 to 10 nM.
The like results for `CCc1cc(F)c2nc(N3CC[C@@H](N[C@@H]4CCOC4)[C@H](C)C3)c(-c3ccn(C)n3)c(C)c2c1` [Compound 110] were, in that order, more than 1000 nM, “+++ (between 100- to 1000-fold selective)” and 1 to 10 nM.
Regarding `CCc1cc(F)c2nc(N3CC[C@H](N[C@@H]4CCCOC4)[C@@H](C)C3)c(-c3ccn(C)n3)c(C)c2c1` [Compound 112], the IC50 against mu opioid receptor (MOR) was more than 1000 nM. In assay [1], the “Selectivity (MOR/KOR)” value is recorded as “+++ (between 100- to 1000-fold selective)” and the IC50 was in the range of 1 to 10 nM.
Turning to `CCc1cc(F)c2nc(N3CC[C@@H](N[C@@H]4CCCOC4)[C@@H](C)C3)c(-c3ccn(C)n3)c(C)c2c1` [Compound 113], the IC50 is more than 1000 nM against mu opioid receptor (MOR) and less than 1 nM in assay [1]. In addition, the “Selectivity (MOR/KOR)” value in assay [1] is reported as “++++ (more than 1000-fold selectivity over MOR)”.
`CCc1cc(F)c2nc(N3CC[C@@H](N[C@@H]4CCCOC4)[C@H](C)C3)c(-c3ccn(C)n3)c(C)c2c1` [Compound 114] had a concentration for half-maximal inhibition (IC50) on mu opioid receptor (MOR) of 100 to 1000 nM. Also, in assay [1], the “Selectivity (MOR/KOR)” value was “++ (between 10- and 100-fold selectivity)”; the IC50 lay within 1 to 10 nM.
At mu opioid receptor (MOR), `CCc1cc(F)c2nc(N3CC[C@@H](N[C@@H]4CCOC4)C[C@@H]3C)c(-c3ccn(C)n3)c(C)c2c1` [Compound 116] came in with an IC50 of more than 1000 nM. For the same molecule, in assay [1], the “Selectivity (MOR/KOR)” value is reported as “++++ (more than 1000-fold selectivity over MOR)” and the IC50 was 1 to 10 nM.
The like results for `CCc1cc(F)c2nc(N3CC[C@H](N[C@@H]4CCOC4)C[C@@H]3C)c(-c3ccn(C)n3)c(C)c2c1` [Compound 117] were, in that order, 100 to 1000 nM, “+++ (between 100- to 1000-fold selective)” and 1 to 10 nM.
On the same counts, the results for `CCc1cc(F)c2nc(N3CC[C@H](N[C@@H]4CCOC4)C[C@H]3C)c(-c3ccn(C)n3)c(C)c2c1` [Compound 118] are 100 to 1000 nM, “++++ (more than 1000-fold selectivity over MOR)” and less than 1 nM.
In turn, `CCc1cc(F)c2nc(N3CC[C@@H](N[C@@H]4CCCOC4)C[C@H]3C)c(-c3ccn(C)n3)c(C)c2c1` [Compound 119] displayed an IC50 on mu opioid receptor (MOR) of 100 to 1000 nM. Further, in assay [1], the “Selectivity (MOR/KOR)” value is reported as “++++ (more than 1000-fold selectivity over MOR)” and the IC50 is less than 1 nM.
The like results for `CCc1cc(F)c2nc(N3CC[C@@H](N[C@@H]4CCCOC4)C[C@@H]3C)c(-c3ccn(C)n3)c(C)c2c1` [Compound 120] were, in that order, more than 1000 nM, “++++ (more than 1000-fold selectivity over MOR)” and less than 1 nM.
The like results for `CCc1cc(F)c2nc(N3CC[C@H](N[C@@H]4CCCOC4)C[C@@H]3C)c(-c3ccn(C)n3)c(C)c2c1` [Compound 121] were, in that order, more than 1000 nM, “+++ (between 100- to 1000-fold selective)” and 10 to 100 nM.
Molecule `CCc1cc(F)c2nc(N3CC[C@H](N[C@@H]4CCCOC4)C[C@H]3C)c(-c3ccn(C)n3)c(C)c2c1` [Compound 122] came in with a 50% inhibitory concentration (IC50) against mu opioid receptor (MOR) of 10 to 100 nM. In addition, in assay [1], the “Selectivity (MOR/KOR)” value is “+++ (between 100- to 1000-fold selective)” and the IC50 is less than 1 nM.
The like results for `CCc1cc(F)c2nc(N3CC[C@@H]4[C@@H](CCN4[C@@H]4CCOC4)C3)c(-c3ccn(C)n3)c(C)c2c1` [Compound 123] were, in that order, more than 1000 nM, “+++ (between 100- to 1000-fold selective)” and 10 to 100 nM.
In the case of `CCc1cc(F)c2nc(N3CC[C@@H]4[C@@H](CCN4[C@@H]4CCCOC4)C3)c(-c3ccn(C)n3)c(C)c2c1` [Compound 124], the IC50 at mu opioid receptor (MOR) is more than 1000 nM; in assay [1] it was 10 to 100 nM. Besides, the “Selectivity (MOR/KOR)” value in assay [1] was “+++ (between 100- to 1000-fold selective)”.

By IC50 is commonly meant the concentration at which inhibition is half-maximal. A higher IC50 goes with weaker potency in that assay.
